Entries after “also recorded” stand apart in the source; their conditions may differ. Read-outs that look alike come from different tables or passages of the source.
Assays:
bullfrog gastric mucosa [1] = assay: Acid secretion of frog (bullfrog) gastric mucosa stimulated with histamine/carbachol or forskolin; assay type: cell-based; details: for Rate of decline in acid secretion: from the linear portion of the inhibition curve, 1 mM cimetidine, 10 mM NH4Cl, 2 mM KCN; for effect of 0.5 and 1 mM barium on acid secretion (in words): up to 3 hr; for acid secretion with 10 mM imidazole, 3 hr: 10 mM nutrient imidazole (5 mM Iz), pH 7.1, 3 hr
bullfrog gastric mucosa [2] = assay type: cell-based
Procedure: FIG. 1B Electrophysiology in the bullfrog gastric mucosa. […] Removal of NH4Cl was followed by a complete recovery of R within 30 min. Data were obtained from 21 experiments and are expressed as the mean±SEM.
FIG. 1C Electrophysiology in the bullfrog gastric mucosa. […] Removal of NH4Cl was followed by a complete recovery of PD within 30 min. Data were obtained from 21 experiments and are expressed as the mean±SEM.

bullfrog gastric mucosa [3] = tested on: bullfrog gastric mucosa
[4] = Time 90″: after 90 min stimulation with histamine/carbachol, start of incubation with 1 mM cimetidine, 0.3 mM omeprazole, 10 mM NH4Cl or 2 mM KCN
[5] = Time 120″, 1 mM cimetidine or 0.3 mM omeprazole added at 90 min
[6] = Time 150″, 1 mM cimetidine or 0.3 mM omeprazole added at 90 min
[7] = blocker first (0.5-5 mM barium, 1-10 mM TEA, 10-100 μM tolbutamide, 10 μM clotrimazole, imidazole, 100 μM bumetamide, amiloride, 1 mM oubain, 0.3 mM DIDS), then 10 mM NH4Cl, within 30 min
[8] = blocker first, then 10 mM NH4Cl, within 30 min
[9] = nutrient solution, vs control tissues, imidazole 100 μM Iz (200 μM nutrient), TEA 1-10 mM, tolbutamide 10-100 μM, clotrimazole 10 μM, bumetamide 100 μM, amiloride, oubain 1 mM, DIDS 0.3 mM, KCN, KCl 2 mM, methylamine
[10] = 10 mM NH4Cl within 30 min, 0.5, 1, 5 mM barium, TEA, tolbutamide, clotrimazole, vs control tissues
[11] = 10 mM NH4Cl within 30 min, barium, TEA, tolbutamide, clotrimazole, vs control tissues
[12] = blocker first (0.5 and 1 mM barium, TEA, tolbutamide, clotrimazole), then 10 mM NH4Cl, within 30 min

CN/C(=N/CCSCc1nc[nH]c1C)NC#N [Cimetidine, cimetidine]
Acid secretion (bullfrog gastric mucosa [1]; [4]): 5.59 ± 0.13 μEq/h · cm^2
Acid secretion (bullfrog gastric mucosa [1]; [5]): 3.51 ± 0.21 μEq/h · cm^2
Acid secretion (bullfrog gastric mucosa [1]; [6]): 0.83 ± 0.22 μEq/h · cm^2
Rate of decline in acid secretion (bullfrog gastric mucosa [1]; 0.3 mM omeprazole): −0.07935 (μEq/h · cm^2)/min

O=S(=O)(O)c1cc(N=C=S)ccc1C=Cc1ccc(N=C=S)cc1S(=O)(=O)O [DIDS]
acid secretion with DIDS (bullfrog gastric mucosa [1]; 0.3 mM DIDS, 60 min, from 5.25±0.12): 2.29±0.18 μEq/hr cm^2
acid secretion after 10 mM NH4Cl added to tissues treated with the blocker (bullfrog gastric mucosa [1]; [7]): 0 μEq/hr cm^2
effect of 10 mM NH4Cl on acid secretion of tissues treated with the blocker (in words) (bullfrog gastric mucosa [1]; [8]): declined; also recorded: immediately reduced acid secretion to zero
effect on stimulated acid secretion (in words) (bullfrog gastric mucosa [1]; [9]): approximately one half of the initial rate; also recorded: partially, but not completely, inhibited

[Cl-].[K+] [KCl, Potassium chloride]
effect on stimulated acid secretion (in words) (bullfrog gastric mucosa [1]): little effect on acid secretion

COc1ccc2[nH]c([S+]([O-])Cc3ncc(C)c(OC)c3C)nc2c1 (stereo not drawn) [Omeprazole, omeprazole]
Acid secretion (bullfrog gastric mucosa [1]; [4]): 5.45 ± 0.30 μEq/h · cm^2
Acid secretion (bullfrog gastric mucosa [1]; [5]): 2.03 ± 0.21 μEq/h · cm^2
Acid secretion (bullfrog gastric mucosa [1]; [6]): 0.30 ± 0.10 μEq/h · cm^2
Rate of decline in acid secretion (bullfrog gastric mucosa [1]; 0.3 mM omeprazole): −0.09034 (μEq/h · cm^2)/min

CC[N+](CC)(CC)CC [TEA, tetraethylammonium]
PD after 10 mM NH4Cl added to tissues treated with the blocker (in words) (bullfrog gastric mucosa [2]): increase in PD
R after 10 mM NH4Cl added to tissues treated with the blocker (in words) (bullfrog gastric mucosa [2]): R increased in all tissues; also recorded: increase in R
effect on potential difference (PD) of stimulated tissues (in words) (bullfrog gastric mucosa [2]): no effect
effect on resistance (R) of stimulated tissues (in words) (bullfrog gastric mucosa [2]): no effect on R; also recorded: not significantly different from that of control tissues
acid secretion after 10 mM NH4Cl added to tissues treated with the blocker (bullfrog gastric mucosa [1]): 0 μEq/hr cm^2
effect of 10 mM NH4Cl on acid secretion of tissues treated with the blocker (in words) (bullfrog gastric mucosa [1]): abolished
effect on stimulated acid secretion (in words) (bullfrog gastric mucosa [1]): no effect on stimulated acid secretion; also recorded: no significant decline

N=C(N)NC(=O)c1nc(Cl)c(N)nc1N [amiloride]
acid secretion after 10 mM NH4Cl added to tissues treated with the blocker (bullfrog gastric mucosa [1]; [7]): 0.188±0.140 μEq/hr cm^2
effect of 10 mM NH4Cl on acid secretion of tissues treated with the blocker (in words) (bullfrog gastric mucosa [1]; [8]): declined
effect on stimulated acid secretion (in words) (bullfrog gastric mucosa [1]; [9]): unchanged; also recorded: little effect on stimulated acid secretion; also recorded: no significant reduction in acid secretion

N [ammonia (NH3), ammonia]
NH3 lost from the nutrient solution (bullfrog gastric mucosa [3]; 10 mM): 61.46 µM
luminal NH3 concentration after 30 min (bullfrog gastric mucosa [3]; 30 min, 10 mM): 0.00133 ± 0.00133 µM
nutrient NH3 concentration at 30 min (bullfrog gastric mucosa [3]; 30 min, 10 mM): 538.3±6.7
concentration of ammonia (NH3) that completely inhibits acid secretion within 30 min (bullfrog gastric mucosa [1]; NH3 present in 10 mM NH4Cl at pH 7.2, basolateral exposure): 92.5 µM

[Ba] [barium]
effect on resistance (R) of stimulated tissues (in words) (bullfrog gastric mucosa [2]; [10]): increased significantly; also recorded: significant increase in R
effect on potential difference (PD) of stimulated tissues (in words) (bullfrog gastric mucosa [2]; [11]): unaffected; also recorded: little to no influence on PD; also recorded: not significantly different from that of control tissues
R after 10 mM NH4Cl added to tissues treated with the blocker (in words) (bullfrog gastric mucosa [2]; [12]): R increased similar to that of control tissues; also recorded: increase in R
PD after 10 mM NH4Cl added to tissues treated with the blocker (in words) (bullfrog gastric mucosa [2]; [8]): PD increased in all groups; also recorded: increase in PD
acid secretion with 0.5 mM barium (bullfrog gastric mucosa [1]; 0.5 mM barium, 3 hr (180 min), from 5.23±0.29): 4.12±0.38 μEq/hr cm^2
acid secretion with 1 mM barium (bullfrog gastric mucosa [1]; 1 mM barium, 3 hr (180 min), from 5.35±0.22): 4.20±0.21 μEq/hr cm^2
acid secretion with 5 mM barium (bullfrog gastric mucosa [1]; 5 mM barium, 3 hr (180 min), from 5.19±0.22): 2.89±0.33 μEq/hr cm^2
reduction of acid secretion compared to control tissues (bullfrog gastric mucosa [1]; 5 mM barium, by 3 hr): 44%
effect of 5 mM barium on acid secretion (in words) (bullfrog gastric mucosa [1]; 5 mM barium, vs control tissues): significantly (P=0.0085) different from control tissues; also recorded: significantly different from that of control tissues
effect of 0.5 and 1 mM barium on acid secretion (in words) (bullfrog gastric mucosa [1]; vs control tissues): not different from that of control tissues; also recorded: inhibition of acid secretion does not occur
effect of 0.5 and 1 mM barium on acid secretion (in words) (bullfrog gastric mucosa [1]; vs control tissues, listed as Barium): not significantly different from that of control tissues
acid secretion after 10 mM NH4Cl added to tissues treated with the blocker (bullfrog gastric mucosa [1]; [7]): 0 μEq/hr cm^2
effect of 10 mM NH4Cl on acid secretion of tissues treated with the blocker (in words) (bullfrog gastric mucosa [1]; [8]): abolished

CCCCNc1cc(C(=O)O)cc(S(N)(=O)=O)c1Oc1ccccc1 [bumetamide]
acid secretion after 10 mM NH4Cl added to tissues treated with the blocker (bullfrog gastric mucosa [1]; [7]): 0.645±0.278 μEq/hr cm^2
effect of 10 mM NH4Cl on acid secretion of tissues treated with the blocker (in words) (bullfrog gastric mucosa [1]; [8]): declined
effect on stimulated acid secretion (in words) (bullfrog gastric mucosa [1]; [9]): unchanged; also recorded: little effect on stimulated acid secretion; also recorded: no significant reduction in acid secretion

Clc1ccccc1C(c1ccccc1)(c1ccccc1)n1ccnc1 [clotrimazole]
effect on resistance (R) of stimulated tissues (in words) (bullfrog gastric mucosa [2]; [10]): no effect; also recorded: not significantly different from that of control tissues
effect on potential difference (PD) of stimulated tissues (in words) (bullfrog gastric mucosa [2]; [11]): no effect
R after 10 mM NH4Cl added to tissues treated with the blocker (in words) (bullfrog gastric mucosa [2]; [12]): increase in R
PD after 10 mM NH4Cl added to tissues treated with the blocker (in words) (bullfrog gastric mucosa [2]; [8]): increase in PD
acid secretion after 10 mM NH4Cl added to tissues treated with the blocker (bullfrog gastric mucosa [1]; [7]): 0 μEq/hr cm^2
effect of 10 mM NH4Cl on acid secretion of tissues treated with the blocker (in words) (bullfrog gastric mucosa [1]; [8]): abolished
effect on stimulated acid secretion (in words) (bullfrog gastric mucosa [1]; [9]): no effect on stimulated acid secretion; also recorded: no significant decline

c1c[nH]cn1 [imidazole]
acid secretion with 100 μM imidazole (bullfrog gastric mucosa [1]; 100 μM Iz, 3 hr (180 min), from 5.47±0.26): 4.86±0.29 μEq/hr cm^2
acid secretion with 10 mM imidazole, 30 min (bullfrog gastric mucosa [1]; 10 mM imidazole (5 mM Iz, 5 mM Iz+), 30 min, from 6.60±0.43): 4.60±0.43 μEq/hr cm^2
acid secretion with 10 mM imidazole, 3 hr (bullfrog gastric mucosa [1]; from 6.60±0.43): 4.06±0.46 μEq/hr cm^2
acid secretion with 10 mM imidazole, 3 hr (bullfrog gastric mucosa [1]; from 6.60±0.43, listed as Iz): 4.03 μEq/hr cm^2
acid secretion after 10 mM NH4Cl added to tissues treated with the blocker (bullfrog gastric mucosa [1]; [7]): 0±0 μEq/hr cm^2
effect of 10 mM NH4Cl on acid secretion of tissues treated with the blocker (in words) (bullfrog gastric mucosa [1]; [8]): inhibited completely; also recorded: inhibited acid secretion immediately
effect on stimulated acid secretion (in words) (bullfrog gastric mucosa [1]; [9]): no effect on acid secretion; also recorded: not significantly different from that of control tissues
effect on stimulated acid secretion (in words) (bullfrog gastric mucosa [1]; nutrient solution, vs control tissues, imidazole 100 μM Iz (200 μM nutrient), TEA 1-10 mM, tolbutamide 10-100 μM, clotrimazole 10 μM, bumetamide 100 μM, amiloride, oubain 1 mM, DIDS 0.3 mM, KCN, KCl 2 mM, methylamine, listed as Iz): not significantly different from that of control tissues

CN [methylamine]
flux rate of methylamine in inhibited tissues (bullfrog gastric mucosa [3]): 0.601±0.114 μM/h cm^2
flux rate of methylamine in stimulated tissues (bullfrog gastric mucosa [3]): 2.25±0.088 μM/h cm^2
acid secretion after methylamine washed from the nutrient solution (bullfrog gastric mucosa [1]): 3.74±0.41 μEq/hr cm^2
acid secretion after washout, % of the starting level (bullfrog gastric mucosa [1]): 60%
acid secretion with methylamine (bullfrog gastric mucosa [1]): 0.081±0.056 μEq/hr cm^2
effect on stimulated acid secretion (in words) (bullfrog gastric mucosa [1]): rapidly inhibits acid secretion
least (minimum) concentration required for complete inhibition of acid secretion within 30 min (bullfrog gastric mucosa [1]): 50 mM

C[C@@H]1O[C@@H](O[C@H]2C[C@@H](O)[C@]3(CO)[C@H]4[C@H](O)C[C@]5(C)[C@@H](C6=CC(=O)OC6)CC[C@]5(O)[C@@H]4CC[C@]3(O)C2)[C@H](O)[C@H](O)[C@H]1O [oubain]
effect on stimulated acid secretion (in words) (bullfrog gastric mucosa [1]): unchanged; also recorded: little effect on stimulated acid secretion; also recorded: no significant reduction in acid secretion
acid secretion after 10 mM NH4Cl added to tissues treated with the blocker (bullfrog gastric mucosa [1]; [7]): 0 μEq/hr cm^2
effect of 10 mM NH4Cl on acid secretion of tissues treated with the blocker (in words) (bullfrog gastric mucosa [1]; [8]): declined

CCCCNC(=O)NS(=O)(=O)c1ccc(C)cc1 [tolbutamide]
effect on resistance (R) of stimulated tissues (in words) (bullfrog gastric mucosa [2]; [10]): no effect; also recorded: not significantly different from that of control tissues
effect on potential difference (PD) of stimulated tissues (in words) (bullfrog gastric mucosa [2]; [11]): no effect
R after 10 mM NH4Cl added to tissues treated with the blocker (in words) (bullfrog gastric mucosa [2]; [12]): increase in R
PD after 10 mM NH4Cl added to tissues treated with the blocker (in words) (bullfrog gastric mucosa [2]; [8]): increase in PD
acid secretion after 10 mM NH4Cl added to tissues treated with the blocker (bullfrog gastric mucosa [1]; [7]): 0 μEq/hr cm^2
effect of 10 mM NH4Cl on acid secretion of tissues treated with the blocker (in words) (bullfrog gastric mucosa [1]; [8]): abolished
effect on stimulated acid secretion (in words) (bullfrog gastric mucosa [1]; [9]): no effect on stimulated acid secretion; also recorded: no significant decline
